Results: paper PMC9779606, “Synthesis, Structural Characterization and Biological Activity Evaluation of Novel Cu(II) Complexes with 3-(trifluoromethyl)phenylthiourea Derivatives” (International Journal of Molecular Sciences, 2022)

Tests used:
[1] = test system: M. tuberculosis H37Rv; assay: Tuberculostatic activity, Microplate Alamar Blue Assay (MABA); assay type: cell-based, Mycobacterium tuberculosis; conditions: M. tuberculosis H37Rv, standard strain, MABA
[2] = test system: M. tuberculosis Spec. 192; assay: as above; assay type: cell-based, Mycobacterium tuberculosis; conditions: M. tuberculosis Spec. 192, patient isolate fully sensitive to tuberculostatics, MABA
[3] = test system: S. aureus 498; assay: MIC, hospital methicillin-resistant strains (MRSA); conditions: hospital MRSA strain S. aureus 498
[4] = test system: S. aureus 567; assay: MIC, hospital methicillin-resistant strains (MRSA); conditions: hospital MRSA strain S. aureus 567
[5] = test system: S. aureus 585; assay: MIC, hospital methicillin-resistant strains (MRSA); conditions: hospital MRSA strain S. aureus 585
[6] = test system: S. aureus NCTC 4163; assay: MIC, twofold serial microdilution, standard strains; conditions: S. aureus NCTC 4163, standard strain
[7] = test system: S. aureus 586; assay: MIC, hospital methicillin-resistant strains (MRSA); conditions: hospital MRSA strain S. aureus 586
[8] = test system: S. aureus 496; assay: MIC, hospital methicillin-resistant strains (MRSA); conditions: hospital MRSA strain S. aureus 496
[9] = test system: S. aureus 572; assay: MIC, hospital methicillin-resistant strains (MRSA); conditions: hospital MRSA strain S. aureus 572
[10] = test system: S. aureus 481; assay: MIC, hospital methicillin-resistant strains (MRSA); conditions: hospital MRSA strain S. aureus 481
[11] = test system: S. epidermidis 420; assay: MIC, hospital methicillin-resistant strains (MRSE); conditions: hospital MRSE strain S. epidermidis 420
[12] = test system: S. epidermidis 423; assay: MIC, hospital methicillin-resistant strains (MRSE); conditions: hospital MRSE strain S. epidermidis 423
[13] = test system: S. epidermidis 510; assay: MIC, hospital methicillin-resistant strains (MRSE); conditions: hospital MRSE strain S. epidermidis 510
[14] = test system: S. epidermidis 511; assay: MIC, hospital methicillin-resistant strains (MRSE); conditions: hospital MRSE strain S. epidermidis 511
[15] = test system: S. epidermidis 515; assay: MIC, hospital methicillin-resistant strains (MRSE); conditions: hospital MRSE strain S. epidermidis 515
[16] = test system: S. epidermidis 432; assay: MIC, hospital methicillin-resistant strains (MRSE); conditions: hospital MRSE strain S. epidermidis 432
[17] = test system: S. epidermidis 433; assay: MIC, hospital methicillin-resistant strains (MRSE); conditions: hospital MRSE strain S. epidermidis 433
[18] = test system: S. epidermidis 437; assay: MIC, hospital methicillin-resistant strains (MRSE); conditions: hospital MRSE strain S. epidermidis 437
[19] = test system: S. epidermidis 438; assay: MIC, hospital methicillin-resistant strains (MRSE); conditions: hospital MRSE strain S. epidermidis 438
[20] = test system: E. coli NCTC 10538; assay: MIC, twofold serial microdilution, standard strains; conditions: E. coli NCTC 10538, standard strain
[21] = test system: C. parapsilosis ATCC 22019; assay: MIC, twofold serial microdilution, standard fungal strains; conditions: C. parapsilosis ATCC 22019, standard strain
[22] = test system: staphylococcal isolates; assay: MIC, standard staphylococcal strains; conditions: text summary of Table 4
[23] = target: T1, S. aureus topoisomerase IV (Staphylococcus aureus, UniProt P0C1S7+P0C1U9); assay: S. aureus topoisomerase IV decatenation assay; assay type: biochemical; conditions: kDNA decatenation, 30 min at 37 °C
T1 construct: purchased Inspiralis, Norwich, UK
T1 sequence (P0C1S7 whole entry): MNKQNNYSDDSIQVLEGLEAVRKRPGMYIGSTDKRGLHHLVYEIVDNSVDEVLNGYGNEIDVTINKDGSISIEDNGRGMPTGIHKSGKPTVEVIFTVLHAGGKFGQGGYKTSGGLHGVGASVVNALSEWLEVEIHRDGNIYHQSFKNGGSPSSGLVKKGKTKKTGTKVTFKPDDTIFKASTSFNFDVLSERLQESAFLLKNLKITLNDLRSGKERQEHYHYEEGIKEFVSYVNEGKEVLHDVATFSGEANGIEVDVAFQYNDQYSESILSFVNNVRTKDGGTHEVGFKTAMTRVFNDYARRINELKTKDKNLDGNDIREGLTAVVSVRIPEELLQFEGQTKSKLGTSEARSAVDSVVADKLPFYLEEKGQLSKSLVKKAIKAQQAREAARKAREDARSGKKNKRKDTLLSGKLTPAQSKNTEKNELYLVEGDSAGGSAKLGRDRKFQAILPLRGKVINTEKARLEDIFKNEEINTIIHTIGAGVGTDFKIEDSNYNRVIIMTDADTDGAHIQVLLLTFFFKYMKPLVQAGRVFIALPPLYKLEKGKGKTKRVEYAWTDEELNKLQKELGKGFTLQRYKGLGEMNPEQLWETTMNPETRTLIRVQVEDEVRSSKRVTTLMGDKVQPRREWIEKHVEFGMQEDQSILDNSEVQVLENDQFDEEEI
T1 sequence (P0C1U9 whole entry): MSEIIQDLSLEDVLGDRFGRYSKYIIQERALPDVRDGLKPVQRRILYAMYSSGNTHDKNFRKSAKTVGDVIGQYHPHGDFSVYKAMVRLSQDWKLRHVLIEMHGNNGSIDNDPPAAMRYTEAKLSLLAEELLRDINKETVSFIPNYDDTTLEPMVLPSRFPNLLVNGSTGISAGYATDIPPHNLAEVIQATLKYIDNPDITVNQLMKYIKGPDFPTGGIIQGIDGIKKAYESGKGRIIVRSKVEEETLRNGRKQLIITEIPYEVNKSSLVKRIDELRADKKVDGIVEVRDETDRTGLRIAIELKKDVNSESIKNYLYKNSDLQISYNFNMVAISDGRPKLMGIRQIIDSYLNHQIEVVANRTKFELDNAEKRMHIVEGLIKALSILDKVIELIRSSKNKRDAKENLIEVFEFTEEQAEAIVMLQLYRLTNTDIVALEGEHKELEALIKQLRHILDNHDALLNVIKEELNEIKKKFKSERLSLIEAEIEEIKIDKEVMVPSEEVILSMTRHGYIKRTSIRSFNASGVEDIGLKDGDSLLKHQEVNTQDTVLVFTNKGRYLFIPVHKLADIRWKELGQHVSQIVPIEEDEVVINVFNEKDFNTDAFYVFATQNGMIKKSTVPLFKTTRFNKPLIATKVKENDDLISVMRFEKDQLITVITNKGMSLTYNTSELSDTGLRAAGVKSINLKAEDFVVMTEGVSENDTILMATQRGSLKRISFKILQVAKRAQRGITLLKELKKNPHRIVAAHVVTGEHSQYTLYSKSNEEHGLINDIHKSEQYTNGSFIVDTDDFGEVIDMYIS
Method: The assay was performed using a S. aureus topoisomerase IV decantation kit (Inspiralis, Norwich, UK). Kinetoplast DNA (kDNA) was the substrate for topoisomerase IV. Firstly, 1 U of topoisomerase IV decatenated 200 ng of kDNA, in the dedicated decantation assay buffer supplied by the manufacturer. […] The reactions were terminated by adding an equal volume of STEB buffer (40% sucrose, 100 mM Tris-HCl pH 8, 1 mM EDTA, 0.5 mg/mL bromophenol blue), followed by extraction with 1 volume of chloroform/isoamyl alcohol (24:1). Then, 20 µL of the aqueous phase of each sample was loaded onto a 1% agarose gel. Electrophoresis was conducted in Tris-acetate-EDTA buffer for 1.5 h at 80 V. Gels were stained with ethidium bromide and visualized under UV light in a transilluminator (ChemiDoc MP, Bio-Rad, Hercules, CA, USA).

[24] = target: T2, S. aureus DNA gyrase (Staphylococcus aureus, UniProt P0A0K8+P20831); assay: S. aureus DNA gyrase supercoiling assay; assay type: biochemical; conditions: pBR322 supercoiling, 30 min at 37 °C
T2 construct: purchased Inspiralis, Norwich, UK
T2 sequence (P20831 whole entry): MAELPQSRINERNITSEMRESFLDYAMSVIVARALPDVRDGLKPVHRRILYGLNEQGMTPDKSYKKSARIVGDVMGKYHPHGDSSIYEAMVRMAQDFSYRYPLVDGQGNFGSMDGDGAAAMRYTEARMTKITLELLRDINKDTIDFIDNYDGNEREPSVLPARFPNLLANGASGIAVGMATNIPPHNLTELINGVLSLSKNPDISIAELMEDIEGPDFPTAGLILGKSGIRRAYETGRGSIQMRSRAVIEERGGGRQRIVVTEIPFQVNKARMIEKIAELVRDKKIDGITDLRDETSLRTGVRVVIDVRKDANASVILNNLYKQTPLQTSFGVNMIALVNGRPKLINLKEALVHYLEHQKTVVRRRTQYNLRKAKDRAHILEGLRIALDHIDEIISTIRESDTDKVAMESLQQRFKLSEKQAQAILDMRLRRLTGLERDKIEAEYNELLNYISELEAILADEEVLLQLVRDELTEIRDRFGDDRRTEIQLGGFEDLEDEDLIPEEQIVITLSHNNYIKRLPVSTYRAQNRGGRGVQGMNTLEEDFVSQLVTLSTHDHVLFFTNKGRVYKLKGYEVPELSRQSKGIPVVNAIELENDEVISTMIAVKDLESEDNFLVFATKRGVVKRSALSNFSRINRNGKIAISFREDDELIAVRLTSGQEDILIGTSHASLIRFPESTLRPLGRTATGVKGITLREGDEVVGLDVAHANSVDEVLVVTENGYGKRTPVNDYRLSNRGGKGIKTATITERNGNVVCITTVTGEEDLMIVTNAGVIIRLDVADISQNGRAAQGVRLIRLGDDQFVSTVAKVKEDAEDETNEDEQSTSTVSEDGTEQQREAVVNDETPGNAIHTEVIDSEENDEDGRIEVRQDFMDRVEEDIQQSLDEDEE
T2 sequence (P0A0K8 whole entry): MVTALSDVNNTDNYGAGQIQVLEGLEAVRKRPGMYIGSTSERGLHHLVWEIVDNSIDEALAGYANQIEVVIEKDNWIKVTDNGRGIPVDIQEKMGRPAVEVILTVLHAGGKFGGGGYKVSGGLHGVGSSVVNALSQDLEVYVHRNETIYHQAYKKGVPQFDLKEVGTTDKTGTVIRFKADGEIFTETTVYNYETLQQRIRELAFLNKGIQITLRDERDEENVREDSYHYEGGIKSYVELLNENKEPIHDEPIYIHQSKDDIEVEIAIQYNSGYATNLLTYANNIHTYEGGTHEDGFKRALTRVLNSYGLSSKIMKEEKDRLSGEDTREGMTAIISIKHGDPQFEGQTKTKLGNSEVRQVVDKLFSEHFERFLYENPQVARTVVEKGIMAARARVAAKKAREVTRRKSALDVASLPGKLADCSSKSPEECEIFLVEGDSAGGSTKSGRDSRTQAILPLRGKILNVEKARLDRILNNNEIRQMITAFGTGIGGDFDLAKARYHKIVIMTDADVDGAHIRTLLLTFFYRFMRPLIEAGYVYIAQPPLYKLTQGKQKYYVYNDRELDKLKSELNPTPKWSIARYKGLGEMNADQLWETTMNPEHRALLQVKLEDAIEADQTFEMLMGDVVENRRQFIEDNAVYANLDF
Method: The assay was performed using a S. aureus DNA Gyrase Supercoiling kit (Inspiralis, Norwich, UK). The activity of DNA topoisomerase II was determined by measuring the conversion of relaxed pBR322 DNA to its supercoiled form. The reaction mixture contained 500 ng of mMpBR322 plasmid DNA and 1 U of enzyme and different concentrations of the compound in a total reaction volume of 30 µL. The mixture was incubated for 30 min at 37 °C. The reactions were terminated by adding an equal volume of STEB buffer (40% sucrose, 100 mM Tris-HCl pH 8, 1 mM EDTA, 0.5 mg/mL bromophenol blue), followed by extraction with 1 volume of chloroform/isoamyl alcohol (24:1). Then, 20 µL of the aqueous phase of each sample was loaded onto a 1% agarose gel. Electrophoresis was conducted in Tris-acetate-EDTA buffer for 3 h at 50 V. Gels were stained with ethidium bromide and visualized under UV light in a transilluminator (ChemiDoc MP, Bio-Rad, Hercules, CA, USA).

[25] = test system: SW480, SW620, and PC3; assay: Cytotoxicity, MTT assay, all cancer cell lines; assay type: cell-based, human; conditions: 72 h, read-out: IC50 towards all investigated cancer cells
Method: MTT assay was performed as previously described. Experiments were repeated three times. […] Decreased relative MTT level means decreased cell viability.

Structure (SMILES)	MIC [1] [µg/mL]	MIC [2] [µg/mL]	MIC [3] [µg/mL]	MIC [4] [µg/mL]	MIC [5] [µg/mL]	MIC [6] [µg/mL]	MIC [7] [µg/mL]	MIC [8] [µg/mL]	MIC [9] [µg/mL]	MIC [10] [µg/mL]	MIC [11] [µg/mL]	MIC [12] [µg/mL]	MIC [13] [µg/mL]	MIC [14] [µg/mL]	MIC [15] [µg/mL]	MIC [16] [µg/mL]	MIC [17] [µg/mL]	MIC [18] [µg/mL]	MIC [19] [µg/mL]	MIC [20] [µg/mL]	other results
CC(NC(=S)[N-]c1cccc(C(F)(F)F)c1)c1ccccc1.CC(NC(=S)[N-]c1cccc(C(F)(F)F)c1)c1ccccc1.[Cu+2] (racemic) [Cu2, Copper(II) Complex with 1-(1-phenylethyl)-3-[3-(trifluoromethyl)phenyl]thiourea]	8	8	8	8	8	32	8	16	16	16	16	16	16	16	16	16	16	16	16	≥256	MIC [21]: 128 µg/mL
FC(F)(F)c1cccc([N-]C(=S)NCCc2ccccc2)c1.FC(F)(F)c1cccc([N-]C(=S)NCCc2ccccc2)c1.O.[Cu+2] [Cu1, Copper(II) Complex with 1-(2-phenylethyl)-3-[3-(trifluoromethyl)phenyl]thiourea]	16	16	64	64	64	64	64	64	64	64	64	64	64	128	128	64	64	64	128	≥256	MIC [21]: 64 µg/mL
FC(F)(F)c1cccc([N-]C(=S)NCc2ccccc2)c1.FC(F)(F)c1cccc([N-]C(=S)NCc2ccccc2)c1.[Cu+2] [Cu3, Copper(II) Complex with 1-benzyl-3-[3-(trifluoromethyl)phenyl]thiourea]	16	16	64	64	64	64	64	64	64	64	64	64	64	64	64	64	64	64	64	≥256	MIC [21]: 32 µg/mL
FC(F)(F)c1cccc([N-]C(=S)Nc2cccc(Br)c2)c1.FC(F)(F)c1cccc([N-]C(=S)Nc2cccc(Br)c2)c1.[Cu+2] [Cu4, Copper(II) Complex with 1-(3-bromophenyl)-3-[3-(trifluoromethyl)phenyl] thiourea]	4	4	8	8	8	8	8	8	8	8	8	8	8	8	8	8	8	8	8	128	MIC, staphylococcal isolates [22]: 8 µg/mL; MIC [21]: ≥256 µg/mL
O.O=[N+]([O-])c1cc(NC(=S)[N-]c2cccc(C(F)(F)F)c2)ccc1Cl.O=[N+]([O-])c1cc(NC(=S)[N-]c2cccc(C(F)(F)F)c2)ccc1Cl.[Cu+2] [Cu5, Copper(II) Complex with 1-(4-chloro-3-nitrophenyl)-3-[3-(trifluoromethyl)phenyl]thiourea]	4	4	2	2	4	4	4	2	2	2	4	4	4	4	4	2	2	2	2	>256	IC50 ± S.E.M. for Topo IV [23]: 6.20 ± 0.50 µg/mL; IC50 ± S.E.M. for Gyrase [24]: 16.80 ± 0.75 µg/mL; IC50 [25]: 11.7 to 19.5 µM; MIC, staphylococcal isolates [22]: 4 µg/mL; MIC [21]: 128 µg/mL
